In brackets after ≈: the same amount, converted by molar mass. Read-outs that look alike come from different tables or passages of the source.
What was measured:
[1] = at 20 °C; Flask method; cited from earlier work
[2] = at 20 °C; Column elution; cited from earlier work
[3] = test system: Escherichia coli (E.coli); test: Antimicrobial activity of a METAC solution (optical density OD600); assay type: cell-based

SMILES | water solubility [1] | water solubility [2] | METAC required to stop E.coli growth ([3]; METAC in solution, OD600, Fig. 8b) | antimicrobial activity ([3]; METAC monomer as such, not bound to a substrate)
Cc1cc(C)c(C(=O)P(=O)(c2ccccc2)c2ccccc2)c(C)c1 [TPO, diphenyl(2,4,6-trimethylbenzoyl)phosphine oxide] | 3.3 µg/mL (≈ 9.47 µM) | 11.9 µg/mL (≈ 34.2 µM) | – | –
C=C(C)C(=O)OCC[N+](C)(C)C.[Cl-] [METAC, [2-(methacryloyloxy)ethyl]trimethylammonium chloride] | – | – | 40 mg/mL | low antimicrobial activity

Reference: EP4186364A1, “ANTIMICROBIAL TREATMENT OF SUBSTRATES” (Livinguard AG, priority 2021, dated 2023)
